Assays:
Assay in all cases: Kinase profiling
Assay type in all cases: biochemical
AXL = target: T1, AXL (Homo sapiens, UniProt P30530)
T1 construct: purchased ProQinase (Freiburg, Germany)
T1 sequence (P30530 26-894): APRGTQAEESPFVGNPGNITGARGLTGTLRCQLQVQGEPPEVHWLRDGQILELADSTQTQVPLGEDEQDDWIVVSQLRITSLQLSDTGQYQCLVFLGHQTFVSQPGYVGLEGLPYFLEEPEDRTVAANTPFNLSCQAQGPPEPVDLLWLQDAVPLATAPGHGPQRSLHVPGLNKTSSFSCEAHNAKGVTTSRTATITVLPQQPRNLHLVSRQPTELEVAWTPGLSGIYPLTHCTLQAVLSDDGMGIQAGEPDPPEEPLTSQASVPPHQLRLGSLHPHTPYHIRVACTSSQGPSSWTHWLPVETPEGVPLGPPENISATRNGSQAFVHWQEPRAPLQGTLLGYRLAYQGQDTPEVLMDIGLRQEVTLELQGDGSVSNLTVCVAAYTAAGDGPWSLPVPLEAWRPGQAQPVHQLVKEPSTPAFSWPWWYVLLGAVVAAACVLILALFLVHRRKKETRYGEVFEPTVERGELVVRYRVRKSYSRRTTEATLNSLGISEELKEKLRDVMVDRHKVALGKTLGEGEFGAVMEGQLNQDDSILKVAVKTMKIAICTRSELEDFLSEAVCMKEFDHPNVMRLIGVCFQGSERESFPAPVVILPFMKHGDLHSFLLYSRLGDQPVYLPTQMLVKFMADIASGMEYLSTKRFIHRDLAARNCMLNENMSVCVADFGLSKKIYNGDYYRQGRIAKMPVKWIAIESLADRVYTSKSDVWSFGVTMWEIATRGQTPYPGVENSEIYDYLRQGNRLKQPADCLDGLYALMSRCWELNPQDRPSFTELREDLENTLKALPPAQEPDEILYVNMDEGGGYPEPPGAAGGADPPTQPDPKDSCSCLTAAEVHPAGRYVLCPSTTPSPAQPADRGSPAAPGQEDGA
Procedure: (§1) The analysis was performed by ProQinase (Freiburg, Germany).

RIPK4 = target: T2, RIPK4 (Homo sapiens, UniProt P57078)
T2 construct: purchased ProQinase (Freiburg, Germany)
T2 sequence (P57078 1-832): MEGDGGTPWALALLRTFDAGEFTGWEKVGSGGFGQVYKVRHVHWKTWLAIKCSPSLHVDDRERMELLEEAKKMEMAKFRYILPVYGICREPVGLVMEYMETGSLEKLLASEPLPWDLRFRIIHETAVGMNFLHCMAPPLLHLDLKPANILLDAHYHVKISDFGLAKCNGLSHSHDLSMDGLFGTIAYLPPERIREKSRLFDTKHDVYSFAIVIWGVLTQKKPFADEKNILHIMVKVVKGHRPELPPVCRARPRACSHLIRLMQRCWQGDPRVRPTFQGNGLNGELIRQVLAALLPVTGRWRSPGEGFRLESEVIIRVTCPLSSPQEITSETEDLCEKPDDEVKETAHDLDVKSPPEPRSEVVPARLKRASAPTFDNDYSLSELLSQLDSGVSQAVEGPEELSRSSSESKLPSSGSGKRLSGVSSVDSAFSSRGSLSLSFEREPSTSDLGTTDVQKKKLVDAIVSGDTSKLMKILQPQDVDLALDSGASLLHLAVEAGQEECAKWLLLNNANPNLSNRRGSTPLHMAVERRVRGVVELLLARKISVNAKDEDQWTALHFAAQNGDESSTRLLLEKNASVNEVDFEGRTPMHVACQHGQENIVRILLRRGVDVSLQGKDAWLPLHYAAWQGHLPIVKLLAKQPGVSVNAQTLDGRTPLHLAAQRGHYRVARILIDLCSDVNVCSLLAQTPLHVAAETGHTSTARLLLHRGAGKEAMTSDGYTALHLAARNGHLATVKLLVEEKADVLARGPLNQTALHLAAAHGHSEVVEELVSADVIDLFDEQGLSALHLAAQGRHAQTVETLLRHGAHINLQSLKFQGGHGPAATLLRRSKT
Procedure: as §1

IRAK1 = target: T3, IRAK1 (Homo sapiens, UniProt P51617)
T3 construct: purchased ProQinase (Freiburg, Germany)
T3 sequence (P51617 whole entry): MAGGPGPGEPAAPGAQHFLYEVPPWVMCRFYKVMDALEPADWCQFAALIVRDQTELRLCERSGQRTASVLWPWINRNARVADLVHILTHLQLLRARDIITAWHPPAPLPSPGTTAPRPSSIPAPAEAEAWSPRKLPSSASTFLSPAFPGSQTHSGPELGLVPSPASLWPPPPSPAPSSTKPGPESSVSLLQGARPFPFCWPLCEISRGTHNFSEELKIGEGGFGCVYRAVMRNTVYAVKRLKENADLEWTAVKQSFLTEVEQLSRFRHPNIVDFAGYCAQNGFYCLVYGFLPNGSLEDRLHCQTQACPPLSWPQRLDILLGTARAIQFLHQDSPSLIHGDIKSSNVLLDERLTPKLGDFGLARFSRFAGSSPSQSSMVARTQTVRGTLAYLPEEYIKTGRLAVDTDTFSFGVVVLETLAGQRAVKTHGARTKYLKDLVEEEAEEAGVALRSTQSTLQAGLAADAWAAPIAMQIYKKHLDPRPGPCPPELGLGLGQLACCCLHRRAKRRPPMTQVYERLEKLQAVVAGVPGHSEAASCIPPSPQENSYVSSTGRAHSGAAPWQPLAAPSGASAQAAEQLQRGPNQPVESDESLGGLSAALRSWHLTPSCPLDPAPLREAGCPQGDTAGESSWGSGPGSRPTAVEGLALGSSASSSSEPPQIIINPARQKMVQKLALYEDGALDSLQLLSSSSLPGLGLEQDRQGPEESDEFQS
Procedure: as §1

ERK7 = target: T4, ERK7 (Homo sapiens, UniProt Q8TD08)
T4 construct: purchased ProQinase (Freiburg, Germany)
T4 sequence (Q8TD08 1-544): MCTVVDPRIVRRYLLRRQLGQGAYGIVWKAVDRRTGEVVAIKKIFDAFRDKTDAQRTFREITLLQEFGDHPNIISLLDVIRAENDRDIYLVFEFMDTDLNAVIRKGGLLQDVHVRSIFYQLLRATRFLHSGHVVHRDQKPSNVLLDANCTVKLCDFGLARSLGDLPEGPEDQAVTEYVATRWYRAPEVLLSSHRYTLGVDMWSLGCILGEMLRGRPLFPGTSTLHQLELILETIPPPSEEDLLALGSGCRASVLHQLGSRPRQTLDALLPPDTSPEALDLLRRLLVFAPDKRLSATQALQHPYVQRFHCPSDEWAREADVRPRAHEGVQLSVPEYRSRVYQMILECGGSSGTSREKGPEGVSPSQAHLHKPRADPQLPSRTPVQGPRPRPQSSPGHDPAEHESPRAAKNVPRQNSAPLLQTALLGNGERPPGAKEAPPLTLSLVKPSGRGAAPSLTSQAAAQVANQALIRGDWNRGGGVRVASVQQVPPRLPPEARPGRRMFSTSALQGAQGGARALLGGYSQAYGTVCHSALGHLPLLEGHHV
Procedure: as §1

TSK2 = target: T5, TSK2 (Homo sapiens, UniProt Q96PF2)
T5 construct: purchased ProQinase (Freiburg, Germany)
T5 sequence (Q96PF2 1-358): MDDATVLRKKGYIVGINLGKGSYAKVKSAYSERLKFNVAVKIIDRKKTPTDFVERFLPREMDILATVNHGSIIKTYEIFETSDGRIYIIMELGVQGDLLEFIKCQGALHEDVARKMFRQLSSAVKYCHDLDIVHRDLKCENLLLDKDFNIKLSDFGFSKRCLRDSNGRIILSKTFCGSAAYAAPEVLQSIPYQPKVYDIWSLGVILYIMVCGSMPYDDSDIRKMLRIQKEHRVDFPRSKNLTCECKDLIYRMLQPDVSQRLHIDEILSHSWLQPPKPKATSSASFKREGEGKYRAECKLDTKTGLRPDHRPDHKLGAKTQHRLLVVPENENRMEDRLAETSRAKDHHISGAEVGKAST
Procedure: as §1

CDK1/CycA2 = target: T6, CDK1/CycA2 (Homo sapiens, UniProt P06493)
T6 construct: purchased ProQinase (Freiburg, Germany)
T6 sequence (P06493 whole entry): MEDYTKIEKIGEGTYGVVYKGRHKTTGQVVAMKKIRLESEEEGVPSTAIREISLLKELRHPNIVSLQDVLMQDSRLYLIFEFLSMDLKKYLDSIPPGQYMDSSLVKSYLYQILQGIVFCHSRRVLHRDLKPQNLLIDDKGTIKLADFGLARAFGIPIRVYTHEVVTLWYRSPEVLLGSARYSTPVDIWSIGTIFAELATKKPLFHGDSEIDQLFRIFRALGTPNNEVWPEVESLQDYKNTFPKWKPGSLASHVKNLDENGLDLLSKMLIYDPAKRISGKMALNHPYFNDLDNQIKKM
T6 sequence (P20248 whole entry partner): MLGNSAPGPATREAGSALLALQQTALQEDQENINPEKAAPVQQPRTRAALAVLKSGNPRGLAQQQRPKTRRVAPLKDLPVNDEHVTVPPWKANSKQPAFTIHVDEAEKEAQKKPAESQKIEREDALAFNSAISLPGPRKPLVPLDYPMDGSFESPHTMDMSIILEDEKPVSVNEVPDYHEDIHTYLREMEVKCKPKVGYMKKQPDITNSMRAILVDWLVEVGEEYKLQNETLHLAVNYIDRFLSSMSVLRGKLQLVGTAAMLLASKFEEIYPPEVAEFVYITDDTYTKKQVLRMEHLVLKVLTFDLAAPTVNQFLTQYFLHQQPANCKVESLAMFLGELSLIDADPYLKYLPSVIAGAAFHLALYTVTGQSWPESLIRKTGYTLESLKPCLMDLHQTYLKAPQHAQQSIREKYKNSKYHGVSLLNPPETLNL
Procedure: as §1

SLK = target: T7, SLK (Homo sapiens, UniProt Q9H2G2)
T7 construct: purchased ProQinase (Freiburg, Germany)
T7 sequence (Q9H2G2 whole entry): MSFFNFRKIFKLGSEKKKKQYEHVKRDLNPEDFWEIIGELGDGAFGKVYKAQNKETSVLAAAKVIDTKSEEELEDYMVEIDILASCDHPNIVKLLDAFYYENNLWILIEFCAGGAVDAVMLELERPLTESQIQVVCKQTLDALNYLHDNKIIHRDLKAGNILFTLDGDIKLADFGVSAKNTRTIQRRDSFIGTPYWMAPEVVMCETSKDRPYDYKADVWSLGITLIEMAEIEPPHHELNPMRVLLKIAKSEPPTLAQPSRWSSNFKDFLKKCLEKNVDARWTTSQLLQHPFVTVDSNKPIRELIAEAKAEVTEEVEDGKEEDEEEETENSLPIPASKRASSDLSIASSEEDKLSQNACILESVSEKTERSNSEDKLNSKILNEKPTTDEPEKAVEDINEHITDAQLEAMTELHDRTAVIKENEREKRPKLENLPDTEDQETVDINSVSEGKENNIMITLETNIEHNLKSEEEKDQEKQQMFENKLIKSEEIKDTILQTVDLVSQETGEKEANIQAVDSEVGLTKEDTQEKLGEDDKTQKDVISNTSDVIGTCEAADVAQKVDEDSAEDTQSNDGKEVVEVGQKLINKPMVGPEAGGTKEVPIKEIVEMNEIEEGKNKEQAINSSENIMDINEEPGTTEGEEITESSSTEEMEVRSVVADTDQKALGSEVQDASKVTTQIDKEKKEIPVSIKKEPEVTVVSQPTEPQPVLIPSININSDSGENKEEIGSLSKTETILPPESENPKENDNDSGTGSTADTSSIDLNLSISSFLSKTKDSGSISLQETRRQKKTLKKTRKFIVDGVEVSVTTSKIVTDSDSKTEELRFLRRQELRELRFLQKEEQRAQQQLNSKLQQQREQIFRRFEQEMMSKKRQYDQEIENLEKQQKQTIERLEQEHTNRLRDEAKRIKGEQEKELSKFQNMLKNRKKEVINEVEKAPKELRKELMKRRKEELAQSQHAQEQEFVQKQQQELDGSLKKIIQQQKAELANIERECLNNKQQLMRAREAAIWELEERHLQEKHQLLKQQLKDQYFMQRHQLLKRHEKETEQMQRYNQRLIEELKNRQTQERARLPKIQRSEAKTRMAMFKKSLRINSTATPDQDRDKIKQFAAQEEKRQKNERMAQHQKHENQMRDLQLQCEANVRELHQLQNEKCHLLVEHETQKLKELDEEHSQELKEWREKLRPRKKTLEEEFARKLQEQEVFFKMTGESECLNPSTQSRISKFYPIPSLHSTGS
Procedure: as §1

`O=C(Nc1ccc(F)c(Nc2ccc3c(c2)CCCCC3=O)c1)c1cccc(F)c1` [Compound 109] was tested, and the Residual activity (AXL; 1.0E-05 M) was 93 % of control, the Residual activity (AXL; 1.0E-06 M) was 98 % of control and the Residual activity (RIPK4; 1.0E-05 M) was 100 % of control. For the same molecule, the Residual activity (RIPK4; 1.0E-06 M) was 103 % of control, the Residual activity (IRAK1; 1.0E-05 M) was 104 % of control and the Residual activity (IRAK1; 1.0E-06 M) was 100 % of control. For the same molecule, the Residual activity (ERK7; 1.0E-05 M) was 98 % of control, the Residual activity (ERK7; 1.0E-06 M) was 99 % of control and the Residual activity (TSK2; 1.0E-05 M) was 99 % of control. The Residual activity (TSK2; 1.0E-06 M) was 88 % of control, the Residual activity (CDK1/CycA2; 1.0E-05 M) was 88 % of control and the Residual activity (CDK1/CycA2; 1.0E-06 M) was 86 % of control. For the same molecule, the Residual activity (SLK; 1.0E-05 M) was 91 % of control and the Residual activity (SLK; 1.0E-06 M) was 94 % of control.

For `O=C(Cc1ccccc1)Nc1ccc(F)c(Nc2ccc3c(c2)CCCCC3=O)c1` [Compound 100], the Residual activity (AXL; 1.0E-05 M) was 99 % of control, the Residual activity (AXL; 1.0E-06 M) was 103 % of control and the Residual activity (RIPK4; 1.0E-05 M) was 98 % of control. The Residual activity (RIPK4; 1.0E-06 M) was 103 % of control, the Residual activity (IRAK1; 1.0E-05 M) was 106 % of control and the Residual activity (IRAK1; 1.0E-06 M) was 107 % of control. For the same molecule, the Residual activity (ERK7; 1.0E-05 M) was 85 % of control, the Residual activity (ERK7; 1.0E-06 M) was 96 % of control and the Residual activity (TSK2; 1.0E-05 M) was 93 % of control. For the same molecule, the Residual activity (TSK2; 1.0E-06 M) was 97 % of control, the Residual activity (CDK1/CycA2; 1.0E-05 M) was 83 % of control and the Residual activity (CDK1/CycA2; 1.0E-06 M) was 85 % of control. For the same molecule, the Residual activity (SLK; 1.0E-05 M) was 93 % of control and the Residual activity (SLK; 1.0E-06 M) was 98 % of control.

Reference: paper PMC9030254, “Target Hopping from Protein Kinases to PXR: Identification of Small-Molecule Protein Kinase Inhibitors as Selective Modulators of Pregnane X Receptor from TüKIC Library” (Cells, 2022)
